From patent US9980943B2, “Methods of treating muscular dystrophy” (BOARD OF REGENTS OF THE NEVADA SYSTEM OF HIGHER EDUCATION, …, priority 2013, dated 2018)

Tests used:
Format in all cases: cell-based, mouse
[1] = tested on: α7 integrin (LacZ reporter in α7βgal+/− myoblasts); assay: Myoblast α7+/LacZ integrin FDG assay (Burkin assay in myoblasts, 96-well); details: α7+/LacZ myoblasts, 96-well
[2] = tested on: α7 integrin (LacZ reporter in α7+/LacZ myotubes); assay: Myotube α7 integrin FDG assay (Burkin assay in myotubes, 96-well); details: myotubes
[3] = tested on: β-galactosidase in CMV-LacZ C2C12 myotubes; assay: CMV-LacZ secondary screen in C2C12 myotubes (β-Gal stabilizing assay); details: for CMV-LACZ in Myotubes (β-galactosidase activity relative to DMSO): CMV-LacZ C2C12 myotubes, 96-well format; for CMV-LACZ in Myotubes, signal relative to DMSO: C2C12 CMV-LacZ myotubes, fold relative to DMSO
Method in brief: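 β-gal stabilization was measured in C2C12 myoblasts or myotubes stably transfected with a CMV-driven LacZ construct, using the FDG β-gal assay. Compounds were tested in dose-response at 0.5, 1, 5, 10, 20 and 40 μM, with two replicates per point.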

Row | Structure (SMILES) | Burkin Assay in Myoblasts, value relative to DMSO ([1]; 0.5 uM) | Burkin Assay in Myoblasts, value relative to DMSO ([1]; 1 uM) | Burkin Assay in Myoblasts, value relative to DMSO ([1]; 5 uM) | Burkin Assay in Myoblasts, value relative to DMSO ([1]; 10 uM) | Burkin Assay in Myoblasts, value relative to DMSO ([1]; 20 uM) | Burkin Assay in Myoblasts, value relative to DMSO ([1]; 40 uM) | Burkin Assay in Myotubes (signal relative to DMSO) ([2]; 0.5 uM) | Burkin Assay in Myotubes (signal relative to DMSO) ([2]; 1 uM) | Burkin Assay in Myotubes (signal relative to DMSO) ([2]; 5 uM) | Burkin Assay in Myotubes (signal relative to DMSO) ([2]; 10 uM) | Burkin Assay in Myotubes (signal relative to DMSO) ([2]; 20 uM) | Burkin Assay in Myotubes (signal relative to DMSO) ([2]; 40 uM) | CMV-LACZ in Myotubes (β-galactosidase activity relative to DMSO) ([3]; 5 uM) | CMV-LACZ in Myotubes (β-galactosidase activity relative to DMSO) ([3]; 10 uM) | CMV-LACZ in Myotubes (β-galactosidase activity relative to DMSO) ([3]; 20 uM) | CMV-LACZ in Myotubes (β-galactosidase activity relative to DMSO) ([3]; 40 uM) | CMV-LACZ in Myotubes, signal relative to DMSO ([3]; 5 uM) | CMV-LACZ in Myotubes, signal relative to DMSO ([3]; 10 uM) | CMV-LACZ in Myotubes, signal relative to DMSO ([3]; 20 uM) | CMV-LACZ in Myotubes, signal relative to DMSO ([3]; 40 uM)
1 | NC(=O)c1nsc(C(=O)N(c2ccccc2)C(C(=O)NCc2ccc(F)cc2)c2ccc(O)cc2)c1N (stereo not shown) [MLS001219621-01] | 0.8642 | 0.8063 | 0.7249 | 0.7542 | 0.7884 | 0.5423 | 0.9394 | 0.8603 | 0.8883 | 0.8616 | 0.648 | 0.4537 | 0.9491 | 1.063 | 1.132 | 1.29 | – | – | – | –
2 | COc1ccccc1N(C(=O)CNC(=O)c1ccco1)C(C(=O)NC1CCCCC1)c1ccncc1 (stereo not shown) [MLS001220669-01] | 1 | 0.9426 | 0.9016 | 0.9605 | 0.8701 | 0.7613 | 0.9722 | 0.978 | 1.0117 | 1.038 | 1.003 | 1.011 | – | – | – | – | 0.8274 | 0.7701 | 1.0114 | 1
3 | Cc1cc(NC(=O)CCC(=O)N(Cc2cccnc2)C(C(=O)NC(C)(C)C)c2ccccc2Cl)no1 (stereo not shown) [MLS001220803-01] | 0.9688 | 1.0343 | 0.8878 | 0.9511 | 0.9503 | 0.9906 | 0.9345 | 0.9703 | 1.18 | 1.075 | 1.0147 | 0.9622 | 1.115 | 1.064 | 1.091 | 1.05 | – | – | – | –
4 | COc1ccc(N2CCCC2)c(NC(=O)c2ccc([N+](=O)[O-])o2)c1 [MLS001221619-01] | 0.6855 | 0.7633 | 0.7367 | 0.6764 | 0.9648 | 0.8976 | 0.826 | 0.9557 | 0.944 | 1.012 | 0.8603 | 1.034 | 1.172 | 1.321 | 1.513 | 1.781 | – | – | – | –
